“Also recorded” adds a separate entry of the source. Like-named read-outs stand apart in the source and are kept apart here.
Key:
thrombin [1] = target: T1, thrombin (Homo sapiens, UniProt P00734); assay: Thrombin inhibition assay (SensoLyte 520 FRET substrate kit); assay type: biochemical; settings: read-out: inhibition relative to the positive control
T1 construct: Thrombin, a multifunctional serine protease generated by prothrombin cleavage; purchased AnaSpec, Inc., San Jose, CA
Procedure: To evaluate the thrombin-inhibitory activity of the hits, a fluorescence assay utilizing a SensoLyte 520 Thrombin Activity Assay Kit (AnaSpec, Inc., San Jose, CA) was performed following the manufacturer’s instructions. This kit contained a novel 5-FAM/QXL 520 (fluorophore/quencher pair) FRET modified substrate (approximately 6 amino acids) that can be cleaved by thrombin at the Arg-Gly (R-G) site. The FRET substrate can be cleaved into two separate fragments, resulting in the release of 5-FAM fluorescence, which can be monitored at an excitation/emission = 490 nm/520 nm[37]. […]
Ten microlitres of compound solution (300 μM in assay buffer) and 40 μL thrombin solution (0.33 μg/ml in assay buffer) were sequentially added to each well of a black, flat- bottom, non-binding 96-well plate (Corning #3650, Corning, NY). […] After incubation, the fluorescence (excitation 490 nm, emission 520 nm) of each mixture was detected with a 2104 EnVision Multilabel Reader (PerkinElmer).
For enzymatic reaction, the thrombin solution treated with vehicle buffer alone was used as negative control. […] All fluorescence readings are taken into account in relative fluorescence units (RFU). The experimental data were analyzed by GraphPad Prism software (version 5, Graphpad Software Incorporation, USA).

[2] = target: T2, Thrombin from human plasma (Homo sapiens, UniProt P00734); assay: SPR competitive binding assay of BBR with argatroban (ABA method, Biacore S200); settings: 300 μM BBR; 30, 60 or 120 μM argatroban
T2 construct: Thrombin, a multifunctional serine protease generated by prothrombin cleavage; purchased Sigma-Aldrich Chemical Co. (St. Louis, MO, USA) T6884; host or cells: human plasma
Procedure: The response units were measured before the end of injection.

washed platelets = assay: Inhibition of thrombin-induced platelet aggregation (turbidimetric method); assay type: cell-based, rabbits; settings: BBR 0.83, 2.50 and 7.50 μM, 5 min at 37 °C, 0.5 U/ml thrombin
Procedure: PRP was obtained by centrifugation of collected blood at 190 g for 10 min. The platelets were isolated from PRP by centrifugation for 10 min at 650 g, resuspended and washed twice in Ca^2+-free Tyrode’s buffer (138 mM NaCl, 2.68 mM KCI, 11.9 mM NaHCO3, 0.36 mM NaH2PO4, 0.49 mM MgSO4, 5.5 mM glucose, pH7.5)[42]. Washed platelets were then resuspended in Tyrode’s buffer including 1.8 mM CaCl2 at a density of 2 × 10^7 platelets/ml.
Aggregation was initiated by the addition of 10 μL of thrombin (final concentrations of 0.5 U/ml). Aggregation was recorded at 37 °C for 5 min using a four-channel platelet aggregation analyser (LBY-NJ4, Beijing Precil Instrument Co., Ltd., China). Platelet aggregation inhibitory percentage was calculated using the following equation: Inhibitory percentage (%) = (1 − At/A0) × 100%. At is the platelet aggregation percentage of the test sample, and A0 is the platelet aggregation percentage of the control sample.

HEK293 cells = assay: Luciferase-coupled ATP quantitative assay (CellTiter-Glo cytotoxicity); assay type: cell-based; settings: incubation 24, 48 or 72 hours
Procedure: HEK293 cells were seeded at 5.0 × 10^3 per well into 96-well clear-bottom black plates and incubated in 5% CO2 at 37 °C overnight. […] Luminescence was determined with an Envision 2100 multilabel reader to detect viability following incubation with CellTiter-Glo reagent for 15 min.

thrombin [3] = target: T1, thrombin; parameters: method as in PMID 12646027, PMID 19674897, PMID 18674905, PMID 18289852, PMID 18052026; settings: training set for pharmacophore generation; cited from earlier work
[4] = target: T2, Thrombin from human plasma; assay: SPR binding affinity measurement (Biacore T200, thrombin-immobilized CM5 chip)
Procedure: SPR binding studies were performed using a Biacore T200 biosensor system (GE Healthcare, Uppsala, Sweden).
Thrombin was diluted in 10 mM sodium acetate buffer at pH 5.0 and immobilized on a CM5 chip using an amine coupling kit. […] A total of 8419 RU of immobilized proteins was obtained. Sensor preparation and interaction analyses were performed at 25 °C in a PBS-P [10 mM phosphate buffer, 137 mM NaCl, 2.7 mM KCl, 0.05% P20 (pH 7.4)] running buffer containing 5% DMSO.
Solvent-correction procedures were included to compensate for any DMSO-related bulk refractive index variations. Reference flow cell without immobilized thrombin served as a non-specific binding control. Biacore traces were baseline subtracted and the signal was presented in sensorgrams and measured in RU. […] Equilibrium constants (KD) were calculated using the ‘affinity’ model in Biacore T200 evaluation software version 2.0.

[5] = Table 2, SPR, immobilized thrombin, read-out: KD

In the case of `COc1ccc2cc3[n+](cc2c1OC)CCc1cc2c(cc1-3)OCO2` [BBR, Berberine], the inhibition at 30 µM (thrombin [1]) is reported as ≥ 50%, the “competitive binding with argatroban to thrombin” value [2] is reported as “could bind to the same argartroban/thrombin interaction site” and the “effect on thrombin-induced platelet aggregation” value (washed platelets) is reported as “had the ability to inhibit thrombin-induced platelet aggregation; also recorded: significantly prevented platelet aggregation”. The cytotoxicity (HEK293 cells) was “no significant cytotoxicity; also recorded: without cytotoxicity”.

In the case of `NC1CCC(CNC(=O)C2CCCN2C(=O)C(N)C(c2ccccc2)c2ccccc2)CC1` (centres unmarked) [CHEMBL269744], the IC50 (thrombin [3]) is listed as 0.0001 µM.

With `O=C(O)c1cc(O)c(O)c(O)c1` [Gallic acid] the Kd [4] was > 200 µM.

With `O=C1c2ccccc2C(=O)c2c(O)c(O)cc(O)c21` [Hydroxyalizarin, reference compound] the Kd [4, 5] was > 200 µM.

For `CC1(C)CCC[C@](C)([C@H]2CC[C@]3(C)[C@@H]2[C@H](O)C[C@@H]2[C@@]4(C)CC[C@H](O)C(C)(C)[C@@H]4[C@@H](O)C[C@]23C)O1` [Panaxatriol], the Kd [4, 5] was > 200 µM.

Source: article PMC5343495 (Scientific Reports, 2017)
